Data taken from US20020128295A1, “Use of pyridoxamine for the treatment and inhibition of obesity-related complications” (priority 2000, published 2002).
Marks after values point to notes of the source that are not given here.

Columns and labels:
[1] = system: Zucker obese (fa/fa) rats; assay: Systolic blood pressure by tail cuff plethysmography; type: in vivo, rat; settings: initial 125-130 mm Hg at week 5; FC rose to 165 mm Hg
Protocol: (§1) All experiments were carried out in accordance with the regulations of the Institutional Animal Care and Use Committee of the University of South Carolina. Female Zucker obese (fa/fa) rats 6 weeks old, (n=14) and lean (LN) littermates (Fa/fa), also 6 weeks old (n=7) were purchased from Charles River Laboratories (Wilmington, Mass.). The fa/fa rats were divided randomly into two groups of 7 each, untreated fatty control (FC) and PM-treated (FPM) animals, the latter group receiving 2 g PM/L in the drinking water. […] All animals were housed individually with a light dark cycle of 12 hours each, and had free access to food and water. Blood pressure measurements were initiated at week 5 in the experiment after acclimating the animals to the apparatus, and were carried out the week following blood and urine collection. Measurements were made by tail cuff plethysmography using a Kent Scientific XBP instrument.

[2] = system: Zucker obese (fa/fa) rats; assay: Vascular changes in aorta and coronary arteries at necropsy; type: in vivo, rat
Protocol: All experiments were carried out in accordance with the regulations of the Institutional Animal Care and Use Committee of the University of South Carolina. Female Zucker obese (fa/fa) rats 6 weeks old, (n=14) and lean (LN) littermates (Fa/fa), also 6 weeks old (n=7) were purchased from Charles River Laboratories (Wilmington, Mass.). The fa/fa rats were divided randomly into two groups of 7 each, untreated fatty control (FC) and PM-treated (FPM) animals, the latter group receiving 2 g PM/L in the drinking water. […] All animals were housed individually with a light dark cycle of 12 hours each, and had free access to food and water. Blood was drawn from anaesthetized (isoflurane) rats by heart puncture and transferred into heparinized vacutainer tubes on ice. Plasma was separated from whole blood within 30 min by centrifugation in a refrigerated benchtop centrifuge; aliquots of plasma were stored at −70° C. until time of analysis. Rats were then killed by over-anesthetization, and liver and kidneys were removed, and both organs rinsed in phosphate buffered saline, and weighed. One kidney was cut in half transversely, and one half was removed for fixation (buffered formalin) for light microscopy. The remaining kidney and liver samples were frozen at −70° C. […]

[3] = system: Zucker obese (fa/fa) rats; assay: Plasma glucose and total glycated hemoglobin (glycemic control); type: in vivo, rat; settings: for Plasma glucose: mean ± SD, 7 animals
Protocol: (§2) All experiments were carried out in accordance with the regulations of the Institutional Animal Care and Use Committee of the University of South Carolina. Female Zucker obese (fa/fa) rats 6 weeks old, (n=14) and lean (LN) littermates (Fa/fa), also 6 weeks old (n=7) were purchased from Charles River Laboratories (Wilmington, Mass.). The fa/fa rats were divided randomly into two groups of 7 each, untreated fatty control (FC) and PM-treated (FPM) animals, the latter group receiving 2 g PM/L in the drinking water. […] All animals were housed individually with a light dark cycle of 12 hours each, and had free access to food and water. Blood was obtained from the tail vein, using heparinized microhematocrit tubes, and plasma recovered by centrifugation at 4° C. All assays for proteins and metabolites in plasma and urine were performed by microplate adaptations of current methods, using a Wallac Victor Model 1420 multilabel plate reader (Wallac, Inc., Gaithersburg, Md.). […] Plasma glucose was measured using the Trinder assay Kit (Sigma #315) and total glycated hemoglobin (GlcHb) by boronate affinity chromatography (Sigma kit #442-B). Total plasma triglycerides and cholesterol were analyzed by enzymatic, calorimetric, end-point assays using Sigma kits for triglycerides (#37, GPO Trinder) and total cholesterol (#352). Insulin was measured using a direct sandwich ELISA for rat insulin (ALPCO, Windham, N.H.). Plasma PM concentration was measured by reverse phase high performance liquid chromatography (RP-HPLC) with fluorescence detection, using 293/393 nm excitation and emission wavelengths.

[4] = system: advanced lipoxidation end-products (ALEs); settings: lipid peroxidation reactions in vitro; cited from earlier work
[5] = system: Sprague-Dawley and Zucker rats; settings: rat, in vivo
Protocol: as §1, with “water.” for “water. Blood pressure measurements were initiated at week 5 in the experiment after acclimating the animals to the apparatus, and were carried out the week following blood and urine collection. Measurements were made by tail cuff plethysmography using a Kent Scientific XBP instrument.”

[6] = system: Zucker obese (fa/fa) rats; assay: Chemical modifications (AGE/ALEs) and fluorescence in skin collagen; type: in vivo, rat
Protocol: (§3) All experiments were carried out in accordance with the regulations of the Institutional Animal Care and Use Committee of the University of South Carolina. Female Zucker obese (fa/fa) rats 6 weeks old, (n=14) and lean (LN) littermates (Fa/fa), also 6 weeks old (n=7) were purchased from Charles River Laboratories (Wilmington, Mass.). The fa/fa rats were divided randomly into two groups of 7 each, untreated fatty control (FC) and PM-treated (FPM) animals, the latter group receiving 2 g PM/L in the drinking water. […] All animals were housed individually with a light dark cycle of 12 hours each, and had free access to food and water. The insoluble fraction of skin collagen was prepared by scraping the skin with a single-edged razor blade to remove hair and adventitious tissue, followed by a series of extractions with 0.5 M NaCl, 0.5 M acetic acid and chloroform/methanol (2:1 v/v), as described previously (Dyer et al., J. Clin. Invest. 91:2463-2469 (1993)). Fructoselysine (FL), a measure of glycation of collagen, and CML, CEL, MDA-lysine and HNE-lysine were assayed by isotope dilution, selected ion monitoring gas chromatography—mass spectrometry (SIM-GC/MS), and pentosidine by RP-HPLC, all as described previously (Requena et al., Biochem. J. 322:317-325 (1997)). Levels of AGEs/ALEs were expressed relative to the FL content of the collagen in order to correct for differences in mean age of the protein (see Table 1 and Discussion, below). Collagen fluorescence (Ex=370 nm, Em=440 nm) was measured after solubilization with pepsin (20 μg/mL in 0.5 M acetic, 24 hr at 37° C.), and was normalized to the hydroxyproline content of the collagen, measured as described by Stegemann and Stalder (Clin. Chim. Acta 18:267-273 (1967)).

[7] = system: Zucker obese (fa/fa) rats; assay: Glycation (fructoselysine) of skin collagen by SIM-GC/MS; type: in vivo, rat; settings: insoluble skin collagen
Protocol: as §3

[8] = system: streptozotocin (STZ)-induced diabetic rat; settings: earlier study, cited from earlier work
[9] = system: Zucker obese (fa/fa) rats; assay: Dyslipidemia: plasma triglycerides and total cholesterol; type: in vivo, rat
Protocol: as §2

[10] = system: Zucker obese (fa/fa) rats; assay: Fasting plasma insulin (ELISA); type: in vivo, rat
Protocol: as §2, with “Blood was obtained from the tail vein, using heparinized microhematocrit tubes, and plasma recovered by centrifugation at 4° C.” left out, “Plasma PM concentration was measured by reverse phase high performance liquid chromatography (RP-HPLC) with fluorescence detection, using 293/393 nm excitation and emission wavelengths.” left out

[11] = system: Zucker obese (fa/fa) rats; assay: Renal function: urinary protein, albumin, plasma creatinine, urine volume; type: in vivo, rat
Protocol: All experiments were carried out in accordance with the regulations of the Institutional Animal Care and Use Committee of the University of South Carolina. Female Zucker obese (fa/fa) rats 6 weeks old, (n=14) and lean (LN) littermates (Fa/fa), also 6 weeks old (n=7) were purchased from Charles River Laboratories (Wilmington, Mass.). The fa/fa rats were divided randomly into two groups of 7 each, untreated fatty control (FC) and PM-treated (FPM) animals, the latter group receiving 2 g PM/L in the drinking water. […] All animals were housed individually with a light dark cycle of 12 hours each, and had free access to food and water. Progression of renal disease was assessed by measurements of plasma creatinine and urinary albumin and total urinary protein. Plasma creatinine concentration was measured by the Jaffe picric acid procedure, using Sigma kit #555-A. For urine collections, rats were housed in metabolic rat cages for 24 hr with free access to food and water. Several drops of toluene were added to the urine collection beaker to inhibit microbial growth. Urinary albumin was quantified by an ELISA assay. Rabbit antiserum to rat albumin and horseradish peroxidase (HRP)-conjugated goat anti-rabbit IgG were purchased from ICN Biomedical Research Products, Costa Mesa, Calif. Briefly, wells were coated with 50 ng of rat albumin (Sigma, St. Louis) in 0.1 M sodium carbonate buffer, pH 10.4, overnight at 4° C. […] After washing, horseradish peroxidase-conjugated goat anti-rabbit IgG (200 μL) was applied for 1 h at 25° C. with shaking, and the plate was developed with 200 μL of ABTS-reagent (2,2′-azino-bis(3-ethylbenzthiazoline-6-sulfonic acid) for 45 min at room temperature. Absorbance was measured at 405 nm. Total urinary protein was measured using the Sigma Microprotein-PR Kit. Based on preliminary experiments in which known amounts of PM were added to urine, PM increased the final absorbance readings in the protein assay, so that a correction (<10%) was applied for the PM content of the urine.

[12] = Week 0, 2 g PM/L in drinking water
[13] = Week 16, 2 g PM/L in drinking water
[14] = Week 32, 2 g PM/L in drinking water

Cc1ncc(CO)c(CN)c1O [PM, Pyridoxamine]
Systolic blood pressure course [1]: remained at initial values | Aorta compared with LN animals [2]: indistinguishable from those of LN animals in all but one animal | Changes in the aortic or coronary vasculature [2]: minimal changes | Effect on glycemia ([3]; 32 week experiment): no effect on glycemia | Glycated Hemoglobin [3, 12]: 6.8 ± 0.5% | Plasma glucose [3, 12]: 6.8 ± 0.5 mM | Glycated Hemoglobin [3, 13]: 6.5 ± 0.3% | Plasma glucose [3, 13]: 6.9 ± 0.6 mM | Glycated Hemoglobin [3, 14]: 6.8 ± 0.3% | Plasma glucose [3, 14]: 6.8 ± 0.5 mM | Inhibition of formation of advanced lipoxidation end-products (ALEs) [4]: potent inhibitor | Tolerability of the dose [5]: well tolerated | HNE-lysine detectability in skin collagen ([6]; 8 months): not detectable | MDA-lysine trace amounts in skin collagen ([6]; 8 months, in 3 of 7 animals): < 2 μmol/mol FL | MDA-Lys in skin collagen ([6]; Week 32): Trace | Fluorescence of skin collagen ([6]; Week 32, necropsy samples, Ex=370 nm, Em=440 nm): 0.05 ± 0.02 Arbitrary Units/mol FL | Number of samples in which MDA-lysine was measurable ([6]; Week 32, of 7 animals): (3/7)^d | Effect on increase in CML and CEL in skin collagen ([6]; fa/fa rats): inhibited the increase in CML and CEL | Effect on increase in Maillard-type collagen fluorescence ([6]; necropsy samples, FC 2-fold higher than LN): prevented this increase | Effect on increase in pentosidine in skin collagen ([6]; through week 11): effective in limiting the increase in pentosidine | MDA-lysine detectability in skin collagen ([6]; until 8 months): no MDA-lysine was detectable | Significance of differences in pentosidine between FC and FPM rats ([6]; week 32, p=0.07): marginal | Glycation of Skin Collagen FL ([7]; Week 0): 3.5 ± 0.2 mmol/mol lysine | Glycation of Skin Collagen FL ([7]; Week 11): 3.0 ± 0.1 mmol/mol lysine | Glycation of Skin Collagen FL ([7]; Week 32): 2.3 ± 0.3 mmol/mol lysine | Albuminuria and plasma creatinine ([8]; STZ-induced diabetic rat): marked reduction in albuminuria and plasma creatinine | Development of renal disease ([8]; STZ-induced diabetic rat): significantly inhibited the development of renal disease | Effect on glycemic control ([8]; STZ-induced diabetic rat): no effect on glycemic control | Reduction in hyperlipidemia ([8]; STZ-rat): > 50% | Plasma cholesterol ([9]; FC rats approximately 250 mg/dL): ~150 mg/dL | Plasma triglycerides relative to the level in LN animals ([9]; after 10 weeks): about three | Plasma triglycerides relative to the values observed in FC animals ([9]; after 10 weeks): less than 50% | Effect on dyslipidemia, both triglycerides and cholesterol ([9]; fa/fa rat): significantly reduced dyslipidemia | Plasma cholesterol, higher than in LN animals ([9]; rat, in vivo): ~50% | Fasting plasma insulin ([10]; 32 weeks): 7.3 ± 0.6 µg/L | Effect on insulin resistance ([10]; fa/fa animals): did not significantly affect insulin resistance | Difference in urine volume between FC and FPM animals ([11]; at any point in the study): no significant differences in urine volume | Urinary volume ([11]; end of the study): 27.0 mL/day | Effect on development of proteinuria ([11]; fa/fa rat, confirmed by plasma creatinine): impressive protection against development of proteinuria
